Measurements from patent US9067898B1, “Isothiazole derivatives as GPR120 agonists for the treatment of type II diabetes” (Janssen Pharmaceutica NV, priority 2014, dated 2015).

Tests used:
Human GPR120 short form = molecular target: T1, Human GPR120 short form (Homo sapiens, UniProt Q5NUL3); assay: Human GPR120 calcium flux assay (FLIPR), Procedure Calcium A; type: cell-based; conditions: HEK-293 cells expressing human GPR120 short form, 2500 cells/well; read-out: GPR120 Ca2+ Assay A EC50
T1 construct: expressed in transfected cells
T1 sequence (Q5NUL3 1-361): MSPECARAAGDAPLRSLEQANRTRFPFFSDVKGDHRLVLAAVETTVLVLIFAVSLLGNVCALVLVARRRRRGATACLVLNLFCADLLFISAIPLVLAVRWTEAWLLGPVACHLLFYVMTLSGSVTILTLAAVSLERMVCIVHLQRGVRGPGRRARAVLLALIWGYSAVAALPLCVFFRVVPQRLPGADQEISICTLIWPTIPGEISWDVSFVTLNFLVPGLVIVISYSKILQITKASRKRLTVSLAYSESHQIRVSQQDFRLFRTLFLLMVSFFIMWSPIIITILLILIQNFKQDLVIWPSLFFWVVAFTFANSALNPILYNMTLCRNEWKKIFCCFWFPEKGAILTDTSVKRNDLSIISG
Summary of the method: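 HEK293 cells stably expressing the short isoform (NM_001195755.1), 2500/well, starved 1 h, then loaded with Fluo-4 NW plus probenecid (30 min 37 °C, 15 min RT). Compound solutions 0.012–100 μM, 0.2% DMSO final; FLIPR read 300 s after addition. EC50 from Fmax−Fmin fitted to variable-slope sigmoid (Hill <2).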

[1] = molecular target: T2, long form of human GPR120 (Homo sapiens, UniProt Q5NUL3); assay: Human GPR120 DiscoveRx PathHunter Beta-Arrestin assay, Procedure β-arrestin A; type: cell-based; conditions: PathHunter CHO-K1 GPR120 β-Arrestin cell line, 3000 cells per well, read-out: hGPR120 β-arrestin A EC50
T2 construct: host or cells: PathHunter CHO-K1 GPR120 β-Arrestin Cell Line
T2 sequence (Q5NUL3 1-377 isoform Q5NUL3-1): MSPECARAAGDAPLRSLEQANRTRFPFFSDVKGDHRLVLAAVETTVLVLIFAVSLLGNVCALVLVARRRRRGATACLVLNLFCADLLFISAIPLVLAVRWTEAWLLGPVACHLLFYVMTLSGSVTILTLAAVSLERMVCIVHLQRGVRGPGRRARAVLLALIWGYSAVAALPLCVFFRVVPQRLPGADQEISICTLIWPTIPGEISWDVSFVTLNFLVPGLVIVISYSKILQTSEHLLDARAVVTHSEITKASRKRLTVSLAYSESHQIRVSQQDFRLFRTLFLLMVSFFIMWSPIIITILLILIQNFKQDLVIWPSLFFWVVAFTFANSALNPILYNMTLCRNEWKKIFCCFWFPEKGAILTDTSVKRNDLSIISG
T2 sequence (P32121 whole entry partner): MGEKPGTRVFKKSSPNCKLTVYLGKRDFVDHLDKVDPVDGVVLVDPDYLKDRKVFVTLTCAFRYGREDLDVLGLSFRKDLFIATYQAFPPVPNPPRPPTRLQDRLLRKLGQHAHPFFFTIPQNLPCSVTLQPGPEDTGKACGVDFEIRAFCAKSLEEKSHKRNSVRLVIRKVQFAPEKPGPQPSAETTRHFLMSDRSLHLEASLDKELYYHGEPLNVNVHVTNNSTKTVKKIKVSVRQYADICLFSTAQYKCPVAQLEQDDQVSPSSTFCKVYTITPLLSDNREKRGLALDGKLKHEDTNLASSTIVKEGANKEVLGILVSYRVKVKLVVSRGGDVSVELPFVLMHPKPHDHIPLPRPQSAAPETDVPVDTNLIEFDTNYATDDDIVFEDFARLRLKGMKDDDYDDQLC
Source text: The binding of an agonist (medium/long chain fatty acids or small molecule agonists) to the G-protein-coupled receptor GPR120 activates phospholipase C, leading to release of intracellular Ca^+2 through the generation of inositol 1,4,5-trisphosphate (InsP3 or IP3). GPR120 activation can also trigger intracellular signaling via recruitment of Beta-Arrestin. In the present method, agonist-induced activation of the human GPR120 receptor is monitored through the use of PathHunter CHO-K1 GPR120 Beta-Arrestin Cell Line engineered by DiscoveRx, as detailed below. The cell lines are designed to co-express both the ProLink/Enzyme Donor (PK)-tagged GPCR and the Enzyme […] (EA)-tagged Beta-Arrestin fusion proteins. Upon GPR120 receptor stimulation/activation, the EA-tagged Beta-Arrestin portion is translocated to the tagged receptor, where the two enzyme fragments are brought within close proximity. Under these conditions, these fragments can interact and form an active Beta-gal enzyme complex through Enzyme Fragment Complementation (EFC). This active Beta-gal complex can enzymatically hydrolyse the substrate to produce a detectable light signal; therefore, activation as a function of agonist concentration can be expressed as an EC50 value to determine relative compound activities. This in vitro assay therefore serves to assess compound agonist activity of the GPR120. Procedure β-Arrestin A: In Procedure β-arrestin A, the cell used were PathHunter CHO-K1 GPR120 β-Arrestin Cell Line, expressing the long form of human GPR120 (Genbank accession number NM 181745), with 3000 cells per well. Procedure β-Arrestin B: In Procedure 3-arrestin B the cells used were PathHunter CHO-K1 GPR120S β-Arrestin Cell Line, expressing the short form of the GPR120 receptor (Accession #NM_181745), with 5000 cells/well. Assay Procedure:
The selected CHO-K1 GPR120 β-Arrestin cells were cultured in Ham's F12 media supplemented with 10% fetal bovine serum (FBS), 1% Glutamine, lx p/s, 800 μg/mL G418 and 300 μg/mL Hygromycin B (for selection). Cell stocks were maintained and grown in a sub-confluent state using standard cell culture procedures. The day before the experiment, the cells were harvested with non-enzymatic cell dissociation buffer and re-suspended in complete growth media at the desired concentration. A Corning 384-plate was then seeded with the proper number of cells in a volume of 25 μL, per well. The seeded plates were incubated overnight at 37° C.
On the day of the experiment, the Assay Buffer containing (a) HBSS with Ca^++ and Mg^++, (b) 20 mM HEPES, and (c) 0.1% BSA stabilizer (pH 7.4) was prepared. The growth medium was gently removed from the cell plates and 20 μL of Assay Buffer added to each well. The plate was then incubated at 37° C. for 60 min. Test compounds were serially diluted in Assay Buffer to desired concentrations (more particularly to one or more of the following μM concentrations: 25, 12.5, 6.25, 3.125, 1.5625, 0.78125, 0.390625, 0.1953125, 0.09765625, 0.048828125, 0.024414063, 0.012207031). Five μL of compound dilution was then added to each well and the plate incubated at 37° C. for 90 min. The detection reagents were prepared according to the manufacture's instruction. Twelve μL of the detection reagents were added to each well and the plate incubated at room temperature for 60 min.
The plates were read on an EnVision instrument, using Protocol name: Luminescence, Plate type: 384 Costar, Measurement height: 3 mm, Measurement time: 1 s, Aperture: 384 Plate aperture. The % activity relative to the positive control was calculated using the following equation:
The % Activity values were plotted versus the concentration of test compound and fitted to a sigmoidal dose-response curve with a Hill slope=1 (fixed value) using nonlinear regression with GraphPad Prism 5.0 to calculate the EC50 values. […]

## Cc1c(CCC(=O)O)ccc(OCc2c(Cl)nsc2-c2cccc(Cl)c2)c1C [Cpd 156, 3-(4-[[3-chloro-5-(3-chlorophenyl)-1,2-thiazol-4-yl]methoxy]-2,3-dimethylphenyl)propanoic acid]
Human GPR120 short form
  EC50: 185 nM
[1]
  EC50: 368 nM

## O=C(O)/C=C/c1cc(F)c(OCc2c(-c3ccc(Cl)cc3)nsc2C(F)(F)F)c(F)c1 [Cpd 201, (E)-3-(4-((3-(4-chlorophenyl)-5-(trifluoromethyl)isothiazol-4-yl)methoxy)-3,5-difluorophenyl)acrylic acid]
Human GPR120 short form
  EC50: 453 nM
[1]
  EC50: 341 nM

## CCc1ccc(-c2snc(Cl)c2COc2c(F)cc(CCCO)c(F)c2F)cc1 [Cpd 140, 3-(4-((3-chloro-5-(4-ethylphenyl)isothiazol-4-yl)methoxy)-2,3,5-trifluorophenyl)propan-1-ol]
Human GPR120 short form
  EC50: 139 nM
[1]
  EC50: 67 nM

## O=C(O)CCc1ccc(OCc2csnc2-c2ccc(Cl)cc2)c(F)c1F [Cpd 189, 3-(4-((3-(4-chlorophenyl)isothiazol-4-yl)methoxy)-2,3-difluorophenyl)propanoic acid]
Human GPR120 short form
  EC50: 310 nM
[1]
  EC50: 612 nM

## OCCCc1ccc(OCc2c(-c3ccc(Cl)cc3)nsc2C(F)(F)F)c(F)c1F [Cpd 132, 3-(4-((3-(4-chlorophenyl)-5-(trifluoromethyl)isothiazol-4-yl)methoxy)-2,3-difluorophenyl)propan-1-ol]
Human GPR120 short form
  EC50: 130 nM
[1]
  EC50: 122 nM

## CCc1ccc(-c2nsc(C(F)(F)F)c2COc2c(F)cc(CCCO)c(F)c2F)cc1 [Cpd 238, 3-(4-((3-(4-ethylphenyl)-5-(trifluoromethyl)isothiazol-4-yl)methoxy)-2,3,5-trifluorophenyl)propan-1-ol]
Human GPR120 short form
  EC50: 521 nM
[1]
  EC50: 90 nM

## Cc1c(CCC(=O)O)ccc(OCc2c(-c3ccc(Cl)c(F)c3)nsc2C(F)(F)F)c1C [Cpd 82, 3-(4-((3-(4-chloro-3-fluorophenyl)-5-(trifluoromethyl)isothiazol-4-yl)methoxy)-2,3-dimethylphenyl)propanoic acid]
Human GPR120 short form
  EC50: 54 nM
[1]
  EC50: 172 nM

## COc1ccc(-c2nsc(C(F)(F)F)c2COc2c(F)cc(CCC(=O)O)cc2F)cc1 [Cpd 99, 3-(3,5-difluoro-4-[[3-(4-methoxyphenyl)-5-(trifluoromethyl)-1,2-thiazol-4-yl]methoxy]phenyl)propanoic acid]
Human GPR120 short form
  EC50: 75 nM
[1]
  EC50: 91 nM

## O=C(O)CCc1cc(F)c(OCc2c(-c3c(F)cc(Cl)cc3F)nsc2C(F)(F)F)c(F)c1 [Cpd 96, 3-(4-((3-(4-chloro-2,6-difluorophenyl)-5-(trifluoromethyl)isothiazol-4-yl)methoxy)-3,5-difluorophenyl)propanoic acid]
Human GPR120 short form
  EC50: 73 nM
[1]
  EC50: 287 nM

## CCc1ccc(-c2snc(Cl)c2COc2c(F)cc(CCCO)cc2F)cc1 [Cpd 183, 3-(4-[[3-chloro-5-(4-ethylphenyl)-1,2-thiazol-4-yl]methoxy]-3,5-difluorophenyl)propan-1-ol]
Human GPR120 short form
  EC50: 300 nM
[1]
  EC50: 52 nM

## CCc1ccc(-c2snc(Cl)c2COc2ccc(CCC(=O)O)c(F)c2F)cc1 [Cpd 66, 3-(4-[[3-chloro-5-(4-ethylphenyl)-1,2-thiazol-4-yl]methoxy]-2,3-difluorophenyl)propanoic acid]
Human GPR120 short form
  EC50: 19 nM
[1]
  EC50: 108 nM

## Cc1c(CCC(=O)O)ccc(OCc2c(Cl)nsc2-c2ccc(F)cc2)c1C [Cpd 154, 3-(4-[[3-chloro-5-(4-fluorophenyl)-1,2-thiazol-4-yl]methoxy]-2,3-dimethylphenyl)propanoic acid]
Human GPR120 short form
  EC50: 178 nM
[1]
  EC50: 431 nM

## Cc1c(CCC(=O)O)ccc(OCc2c(-c3c(F)cc(Cl)cc3F)nsc2C(F)(F)F)c1C [Cpd 133, 3-(4-((3-(4-chloro-2,6-difluorophenyl)-5-(trifluoromethyl)isothiazol-4-yl)methoxy)-2,3-dimethylphenyl)propanoic acid]
Human GPR120 short form
  EC50: 131 nM
[1]
  EC50: 539 nM

## OCCCc1cc(F)c(OCc2c(C3CCCC3)nsc2C(F)(F)F)c(F)c1 [Cpd 141, 3-(4-[[3-cyclopentyl-5-(trifluoromethyl)-1,2-thiazol-4-yl]methoxy]-3,5-difluorophenyl)propan-1-ol]
Human GPR120 short form
  EC50: 148 nM
[1]
  EC50: 105 nM

## O=C(O)CCc1ccc(OCc2csnc2-c2ccc(Br)cc2)c(F)c1F [Cpd 187, 3-(4-((3-(4-bromophenyl)isothiazol-4-yl)methoxy)-2,3-difluorophenyl)propanoic acid]
Human GPR120 short form
  EC50: 305 nM
[1]
  EC50: 889 nM

## O=C(O)CCc1ccc(OCc2c(-c3ccc(Cl)cc3)nsc2C(F)(F)F)c(Br)c1 [Cpd 69, 3-(3-bromo-4-[[3-(4-chlorophenyl)-5-(trifluoromethyl)-1,2-thiazol-4-yl]methoxy]phenyl)propanoic acid]
Human GPR120 short form
  EC50: 31 nM
[1]
  EC50: 83 nM

## CCc1ccc(-c2snc(Cl)c2COc2ccc(CCCO)c(F)c2F)cc1 [Cpd 83, 3-(4-((3-chloro-5-(4-ethylphenyl)isothiazol-4-yl)methoxy)-2,3-difluorophenyl)propan-1-ol]
Human GPR120 short form
  EC50: 56 nM
[1]
  EC50: 54 nM

## COc1ccc(-c2snc(Cl)c2COc2c(F)cc(CCC(=O)O)cc2F)cc1 [Cpd 97, 3-(4-[[3-chloro-5-(4-methoxyphenyl)-1,2-thiazol-4-yl]methoxy]-3,5-difluorophenyl)propanoic acid]
Human GPR120 short form
  EC50: 73 nM
[1]
  EC50: 338 nM

## CCc1ccc(-c2cscc2COc2ccc(CCC(=O)O)c(C)c2C)cc1 [Cpd 41, 3-(4-((4-(4-ethylphenyl)thiophen-3-yl)methoxy)-2,3-dimethylphenyl)propanoic acid]
Human GPR120 short form
  EC50: 142 nM
[1]
  EC50: 711 nM

## CCc1ccc(-c2nsc(C(F)(F)F)c2COc2c(F)c(F)c(CCC(=O)O)c(F)c2F)cc1 [Cpd 118, 3-(4-((3-(4-ethylphenyl)-5-(trifluoromethyl)isothiazol-4-yl)methoxy)-2,3,5,6-tetrafluorophenyl)propanoic acid]
Human GPR120 short form
  EC50: 105 nM
[1]
  EC50: 257 nM

## CCc1nsc(-c2ccc(C)cc2F)c1COc1c(F)cc(CCC(=O)O)cc1F [Cpd 150, 3-(4-[[3-ethyl-5-(2-fluoro-4-methylphenyl)-1,2-thiazol-4-yl]methoxy]-3,5-difluorophenyl)propanoic acid]
Human GPR120 short form
  EC50: 167 nM
[1]
  EC50: 240 nM

## CCc1ccc(-c2ccsc2COc2c(F)cc(CCCO)cc2F)cc1 [Cpd 20, 3-(4-[[3-(4-ethylphenyl)thiophen-2-yl]methoxy]-3,5-difluorophenyl)propan-1-ol]
Human GPR120 short form
  EC50: 657 nM
[1]
  EC50: 168 nM
